From patent US20220169598A1, “HALOGENATED PHENYLSULFONAMIDE HYDROXAMIC ACID COMPOUNDS, COMPOSITIONS AND USES THEREOF AS SELECTIVE HDAC6 INHIBITORS” (2681603 ONTARIO INC., priority 2019, published 2022)
Read-outs that look alike come from different tables or passages of the source.

What was measured:
HDAC6 = target: T1, HDAC6 (Homo sapiens, UniProt Q9UBN7); experiment: in vitro activity-based HDAC assay; type: biochemical; conditions: ranges given; read-out: IC50 for HDAC6
T1 sequence (Q9UBN7 1-1215): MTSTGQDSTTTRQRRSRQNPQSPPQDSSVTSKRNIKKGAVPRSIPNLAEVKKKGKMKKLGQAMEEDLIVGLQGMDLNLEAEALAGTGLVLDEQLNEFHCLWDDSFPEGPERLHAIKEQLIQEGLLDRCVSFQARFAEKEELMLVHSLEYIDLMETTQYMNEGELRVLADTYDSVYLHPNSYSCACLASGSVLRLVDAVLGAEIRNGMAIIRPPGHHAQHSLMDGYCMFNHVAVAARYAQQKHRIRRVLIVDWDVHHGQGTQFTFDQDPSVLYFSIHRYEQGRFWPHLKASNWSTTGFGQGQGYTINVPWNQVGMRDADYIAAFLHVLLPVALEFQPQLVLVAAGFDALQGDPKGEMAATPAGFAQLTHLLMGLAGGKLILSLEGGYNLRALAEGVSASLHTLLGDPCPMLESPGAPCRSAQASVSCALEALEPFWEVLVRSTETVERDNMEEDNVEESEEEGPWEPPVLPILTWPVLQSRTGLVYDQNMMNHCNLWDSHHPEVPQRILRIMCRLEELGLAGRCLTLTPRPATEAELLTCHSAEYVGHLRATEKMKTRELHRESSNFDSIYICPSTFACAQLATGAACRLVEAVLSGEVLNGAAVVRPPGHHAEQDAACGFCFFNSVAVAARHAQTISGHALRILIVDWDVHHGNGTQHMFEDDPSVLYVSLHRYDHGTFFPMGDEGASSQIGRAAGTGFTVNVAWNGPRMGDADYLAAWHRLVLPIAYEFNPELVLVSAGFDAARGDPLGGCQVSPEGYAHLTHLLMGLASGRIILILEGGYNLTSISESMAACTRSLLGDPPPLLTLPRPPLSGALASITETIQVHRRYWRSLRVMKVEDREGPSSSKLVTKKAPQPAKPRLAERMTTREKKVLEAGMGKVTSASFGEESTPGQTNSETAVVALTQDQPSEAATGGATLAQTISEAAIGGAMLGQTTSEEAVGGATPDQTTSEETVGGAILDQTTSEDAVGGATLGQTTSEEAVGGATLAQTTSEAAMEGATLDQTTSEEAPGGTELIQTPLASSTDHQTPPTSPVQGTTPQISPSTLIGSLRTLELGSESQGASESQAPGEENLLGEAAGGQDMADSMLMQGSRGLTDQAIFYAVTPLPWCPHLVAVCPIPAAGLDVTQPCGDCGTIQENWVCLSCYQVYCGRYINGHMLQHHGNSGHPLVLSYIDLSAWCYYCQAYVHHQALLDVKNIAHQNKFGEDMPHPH
Procedure: The exemplary compounds of Formula I and structurally related compounds were synthesized to assess their structure-activity relationship. […] The IC50 values for each exemplary compound were used to calculate the selectivity of the exemplary compounds for Formula I to HDAC6. The selectivity of each exemplary compound for HDAC6 was determined from examining the potency of HDAC6 in relation to the highest binding affinity of the other HDAC isoforms tested.

MV-4-11 = experiment: Cytotoxicity in cell lines; type: cell-based; conditions: read-out: IC50 MV-411
Procedure: (§1) The cytotoxicity of exemplary compounds of the application was tested in multiple cell lines including MV-4-11, MOLM-13, MCF-7, MRC9, K562 and MM.1S. The therapeutic index was evaluated by determining the toxicity of the exemplary compounds in healthy cell lines including fibroblasts and HUVEC.

MOLM-13 = experiment: Cytotoxicity in cell lines; type: cell-based; conditions: Homo sapiens, MOLM-13, read-out: IC50 MOLM-13
Procedure: as §1

[1] = Plasma stability by LC-MS; type: in vitro ADME; conditions: mouse plasma
Procedure: The stability of select compounds of the application in plasma was assessed quantitatively through LC-MS and the results are shown in Table 6.

O=C(/C=C/c1ccc(CN(c2ccccc2)S(=O)(=O)c2cc(F)c(F)c(F)c2F)cc1)NO [Compound I-66, (E)-N-hydroxy-3-(4-((2,3,4,5-tetrafluoro-N-phenylphenylsulfonamido)methyl)phenyl)acrylamide] gave an IC50 (HDAC6) of 10 to 30 nM and an IC50 (MV-4-11; Homo sapiens, MV4-11, Table 5) of 840 nM.
For O=C(/C=C/c1ccc(CNC(=O)c2c(F)c(F)c(F)c(F)c2F)cc1)NO [Compound I-81, (E)-2,3,4,5,6-pentafluoro-N-(4-(3-(hydroxyamino)-3-oxoprop-1-en-1-yl)benzyl)benzamide], the IC50 (HDAC6) was 10 to 30 nM.
Work on CC(c1ccc(F)cc1)N(Cc1ccc(/C=C/C(=O)NO)cc1)S(=O)(=O)c1c(F)c(F)c(F)c(F)c1F (stereo not shown) [Compound I-60, (E)-N-hydroxy-3-(4-((2,3,4,5,6-pentafluoro-N-(1-(4-fluorophenyl)ethyl)phenylsulfonamido)methyl)phenyl)acrylamide] yielded an IC50 (HDAC6) of 10 to 30 nM and an IC50 (MV-4-11; Homo sapiens, MV4-11, Table 5) of 470 nM.
O=C(NO)c1ccc(CN(Cc2ccc(F)nc2)S(=O)(=O)c2cc(F)c(F)c(F)c2F)cc1 [Compound I-27, N-hydroxy-4-((2,3,4,5-tetrafluoro-N-((6-fluoropyridin-3-yl)methyl)phenylsulfonamido)methyl)benzamide] showed an IC50 (MV-4-11; Homo sapiens, MV4-11, Table 4) of 843 nM.
In the case of O=C(NO)c1ccc(CN(Cc2ccc(F)cc2)S(=O)(=O)c2c(F)c(F)c(F)c(F)c2F)cc1 [Compound I-9, N-hydroxy-4-((2,3,4,5,6-pentafluoro-N-(4-fluorobenzyl)phenylsulfonamido)methyl)benzamide], the IC50 (MOLM-13; Table 4) is reported as 5200 nM.
In the case of O=C(/C=C/c1ccc(CNC(=O)c2cc(F)c(F)c(F)c2F)cc1)NO [Compound I-82, (E)-2,3,4,5-tetrafluoro-N-(4-(3-(hydroxyamino)-3-oxoprop-1-en-1-yl)benzyl)benzamide], the IC50 (HDAC6) is reported as 10 to 30 nM and the IC50 (MV-4-11; Homo sapiens, MV4-11, Table 5) is reported as 590 nM.
With O=C(NO)c1ccc(CN(C2CC2)S(=O)(=O)c2c(F)c(F)cc(F)c2F)cc1 [Compound I-14, 4-((N-cyclopropyl-2,3,5,6-tetrafluorophenylsulfonamido)methyl)-N-hydroxybenzamide] the IC50 (MV-4-11; Homo sapiens, MV4-11, Table 4) was 5700 nM.
Molecule O=C(NO)c1ccc(CN(Cc2ccccn2)S(=O)(=O)c2cc(F)c(F)c(F)c2F)cc1 [Compound I-20, N-hydroxy-4-((2,3,4,5-tetrafluoro-N-(pyridin-2-ylmethyl)phenylsulfonamido)methyl)benzamide] has an IC50 (MV-4-11; Homo sapiens, MV4-11, Table 4) of 480 nM.
O=C(/C=C/c1ccc(CN(Cc2ccc(F)cc2)S(=O)(=O)c2cc(F)c(F)c(F)c2F)cc1)NO [Compound I-68] showed an IC50 (MV-4-11; Homo sapiens, MV4-11, Table 5) of 800 nM.
O=C(/C=C/c1ccc(CN(Cc2ccccc2)S(=O)(=O)c2cc(F)c(F)c(F)c2F)cc1)NO [Compound I-67] gave an IC50 (MV-4-11; Homo sapiens, MV4-11, Table 5) of 1140 nM.
Work on O=C(NO)c1ccc(CN(Cc2ccccc2)S(=O)(=O)c2cc(F)c(F)c(F)c2F)cc1 [Compound I-16, 4-((N-benzyl-2,3,4,5-tetrafluorophenylsulfonamido)methyl)-N-hydroxybenzamide] yielded an IC50 (MV-4-11; Homo sapiens, MV4-11, Table 4) of 190 nM.
In the case of CN(C)c1ccc(CN(Cc2ccc(/C=C/C(=O)NO)cc2)S(=O)(=O)c2cc(F)c(F)c(F)c2F)cc1 [Compound I-69], the IC50 (MOLM-13; Table 5) is reported as 1800 nM and the IC50 (MV-4-11; Homo sapiens, MV4-11, Table 5) is reported as 1600 nM.
O=C(NO)c1ccc(CN(C2CC2)S(=O)(=O)c2c(F)cc(F)c(Cl)c2F)cc1 [Compound I-42, 4-((3-chloro-N-cyclopropyl-2,4,6-trifluorophenylsulfonamido)methyl)-N-hydroxybenzamide] gave an IC50 (MV-4-11; Homo sapiens, MV4-11, Table 4) of 741 nM.
For Cc1ccc(CN(Cc2ccc(CC(=O)NO)cc2)S(=O)(=O)c2cc(F)c(F)c(F)c2F)cc1F [Compound I-73], the IC50 (MV-4-11; Homo sapiens, MV4-11, Table 5) was 1090 nM.
For O=C(CCCCCCC(=O)Nc1ccccc1)NO [Vorinostat], the half-life [1] was 1.98 h, the “Remaining Percentage (%) 0 min” value [1] was 100% and the “Remaining Percentage (%) 15 min” value [1] was 98.6%. For the same molecule, the “Remaining Percentage (%) 30 min” value [1] was 89.0%, the “Remaining Percentage (%) 45 min” value [1] was 74.9% and the “Remaining Percentage (%) 60 min” value [1] was 68.4%. The “Remaining Percentage (%) 120 min” value [1] was 52.1%.
In the case of O=C(/C=C/c1ccc(CN(C2CCCC2)S(=O)(=O)c2cc(F)c(F)c(F)c2F)cc1)NO [Compound I-65, (E)-3-(4-((N-cyclopentyl-2,3,4,5-tetrafluorophenylsulfonamido)methyl)phenyl)-N-hydroxyacrylamide], the IC50 (HDAC6) is reported as 150 to 200 nM, the IC50 (MV-4-11; Homo sapiens, MV4-11, Table 5) is reported as 2430 nM and the IC50 (MV-4-11; Table 5) is reported as 1940 nM.
For O=C(/C=C/c1cccc(S(=O)(=O)Nc2ccccc2)c1)NO [Belinostat], the half-life [1] was 2.35 h, the “Remaining Percentage (%) 0 min” value [1] was 100% and the “Remaining Percentage (%) 15 min” value [1] was 88.6%. The “Remaining Percentage (%) 30 min” value [1] was 78.8%, the “Remaining Percentage (%) 45 min” value [1] was 75.0% and the “Remaining Percentage (%) 60 min” value [1] was 72.1%. For the same molecule, the “Remaining Percentage (%) 120 min” value [1] was 53.8%.
Work on COc1ccc(CN(Cc2ccc(/C=C/C(=O)NO)cc2)S(=O)(=O)c2c(F)c(F)c(F)c(F)c2F)cc1 [Compound I-61, (E)-N-hydroxy-3-(4-((2,3,4,5,6-pentafluoro-N-(4-methoxybenzyl)phenylsulfonamido)methyl)phenyl)acrylamide] yielded an IC50 (HDAC6) of 30 to 50 nM.
Work on Cc1ccc(CN(Cc2ccc(C(=O)NO)cc2)S(=O)(=O)c2cc(F)c(F)c(F)c2F)c(F)c1 [Compound I-26, N-hydroxy-4-((2,3,4,5-tetrafluoro-N-(2-fluoro-4-methylbenzyl)phenylsulfonamido)methyl)benzamide] yielded an IC50 (MV-4-11; Homo sapiens, MV4-11, Table 4) of 1870 nM.
In the case of O=C(NO)c1ccc(CN(Cc2ccncc2F)S(=O)(=O)c2cc(F)c(F)c(F)c2F)cc1 [Compound I-28, N-hydroxy-4-((2,3,4,5-tetrafluoro-N-((3-fluoropyridin-4-yl)methyl)phenylsulfonamido)methyl)benzamide], the IC50 (MOLM-13; Table 4) is reported as 663 nM and the IC50 (MV-4-11; Homo sapiens, MV4-11, Table 4) is reported as 596 nM.
CN(Cc1ccc(C(=O)NO)cc1)S(=O)(=O)c1c(F)c(F)c(F)c(F)c1F [Compound I-2, N-hydroxy-4-((2,3,4,5,6-pentafluoro-N-methylphenylsulfonamido)methyl)benzamide] showed an IC50 (MV-4-11; Homo sapiens, MV4-11, Table 4) of 1040 nM.
O=C(/C=C/c1ccc(CN(C(=O)c2c(F)c(F)c(F)c(F)c2F)C2CC2)cc1)NO [Compound I-83, (E)-N-cyclopropyl-2,3,4,5,6-pentafluoro-N-(4-(3-(hydroxyamino)-3-oxoprop-1-en-1-yl)benzyl)benzamide] showed an IC50 (MV-4-11; Homo sapiens, MV4-11, Table 5) of 750 nM.
O=C(Cc1ccc(CN(C2CCCCC2)S(=O)(=O)c2cc(F)c(F)c(F)c2F)cc1)NO [Compound I-72] showed an IC50 (MV-4-11; Homo sapiens, MV4-11, Table 5) of 570 nM.
With O=C(/C=C/c1ccc(CN(Cc2ccc(F)cc2)S(=O)(=O)c2c(F)c(F)c(F)c(F)c2F)cc1)NO [Compound I-59, (E)-N-hydroxy-3-(4-((2,3,4,5,6-pentafluoro-N-(4-fluorobenzyl)phenylsulfonamido)methyl)phenyl)acrylamide] the IC50 (HDAC6) was 10 to 30 nM and the IC50 (MV-4-11; Homo sapiens, MV4-11, Table 5) was 590 nM.
For O=C(Cc1ccc(CN(C2CC2)S(=O)(=O)c2cc(F)c(F)c(F)c2F)cc1)NO [Compound I-71, 2-(4-((N-cyclopropyl-2,3,4,5-tetrafluorophenylsulfonamido)methyl)phenyl)-N-hydroxyacetamide], the IC50 (HDAC6) was 100 to 150 nM.
Molecule COc1cc(/C=C/C(=O)NO)ccc1CN(Cc1cccnc1)S(=O)(=O)c1cc(F)c(F)c(F)c1F [Compound I-78] has an IC50 (MOLM-13; Table 5) of 2900 nM and an IC50 (MV-4-11; Homo sapiens, MV4-11, Table 5) of 1300 nM.
O=C(NO)c1ccc(CN(Cc2ccc(C(F)(F)F)cc2)S(=O)(=O)c2c(F)c(F)c(F)c(F)c2F)cc1 [Compound I-10, N-hydroxy-4-((2,3,4,5,6-pentafluoro-N-(4-(trifluoromethyl)benzyl)phenylsulfonamido)methyl)benzamide] gave an IC50 (MOLM-13; Table 4) of 9100 nM.
O=C(NO)c1ccc(CN(Cc2cc(F)c(F)c(F)c2)S(=O)(=O)c2c(F)c(F)c(F)c(F)c2F)cc1 [Compound I-11, N-hydroxy-4-((2,3,4,5,6-pentafluoro-N-(3,4,5-trifluorobenzyl)phenylsulfonamido)methyl)benzamide] gave an IC50 (MOLM-13; Table 4) of 3500 nM.
